In patent US11426441B2, “Composition comprising protein phosphatase 1 inhibitory peptide for treating vascular diseases” (BethphaGen Inc., priority 2016, dated 2022):
No end group written: not given here.

What was measured:
[1] = tested on: SERCA2a; experiment: Aorta ex vivo organ culture, SERCA2a western blotting; type: cell-based; conditions: ex vivo culture of rat thoracic aorta, injury by scratching
Procedure: A rat thoracic aorta was harvested and incubated in RPMI-1640 medium containing 20 mM HEPES, 2 mM L-glutamine, 100 IU/mL penicillin, and 100 μg/mL streptomycin. The adventitia was removed, and the aorta was cut longitudinally and fixed onto a resin. To investigate the degradation of SERCA2a, tissue fragments were cultured for 7-10 days in RPMI-1640 medium containing 20% (v/v) FCS. The medium was replaced every 48 hours.
(§1) Vascular smooth muscle cells (VSMCs) were homogenized in a minimal volume of 50 mM Tris-HCl, pH 7.4, supplemented with a broad-spectrum protease inhibitor cocktail (Calbiochem). The proteins were separated by SDS-PAGE and then transferred to polyvinylidene fluoride membranes (Schleicher & Schuell). After blocking with 5% (w/v) non-fat milk for 1 hour and washing with TBST, the membranes were incubated with antibodies against SERCA2a, SERCA2b (21st century biochemical), PCNA (abcam), GAPDH (Sigma-Aldrich), phospho-eNOS, eNOS, phospho-eIF2α, eIF2α (cell signaling), Vimentin, α-SMA, BMPR2 (Santa cruz), phospho-Akt, Akt (cell signaling), phospho-phospholamban (Merck), and Phospholamban (cell signaling). The membranes were then incubated with horseradish peroxidase-conjugated secondary antibodies (Jackson ImmunoResearch, West Grove, Pa., USA) and developed using a chemiluminescent substrate (Dogen). The blots were scanned and quantified using LAS software.

[2] = tested on: SERCA2a; experiment: A23187-induced SERCA2a degradation in HCSMCs; type: cell-based, human; conditions: HCSMCs pretreated 1 hour with 3 μM ψPLB-SE or 15 μM MDL28170, then 50 μM A23187 2 hours
Procedure: FIGS. 4a, 4b, 4c and 4d. (4a-4c) HCSMCs were pretreated with 3 μM ψPLB-SE and 15 μM MDL28170 for 1 hour, and then treated with 50 μM A23187 for 2 hours. (4a) Immunostaining was performed with antibodies against SERCA2a and SERCA2b (green). Nuclei were stained with Hoechst (blue). Representative merged images are shown. Scale bar, 50 μm. (4b) Western blot analysis was performed with cell extracts. Data are expressed as the means±SD (n=3-4; *, P<0.05). (4c) Baseline Ca^2+ concentration was measured by lonOptix calcium imaging system. (4d) RASMC were treated with ψPLB-SE or control peptide under the same conditions as described for FIG. 1B. The baseline Ca^2+ concentration was measured by lonOptix calcium imaging system (*, P<0.05).
The rat aortic smooth muscle cells (RASMCs) were isolated from the medial layer of the thoracic aorta derived from male Sprague-Dawley rats (body weight, 180-200 g) by an enzymatic reaction with collagenase (50 U/mL, Worthington) and pancreatic elastase (0.25 mg/mL, Sigma-Aldrich) for 4 hours at 37. The cells were collected and resuspended in DMEM containing 20% (v/v) fetal bovine serum. The resuspension was then plated on collagen I (Sigma-Aldrich)-coated glass coverslips and incubated at 37 in an atmosphere of 5% (v/v) CO2 and 95% (v/v) air. Human coronary smooth muscle cells (HCSMCs), pulmonary arterial endothelial cells (PAECs), and pulmonary arterial smooth muscle cells (PASMCs) were purchased from Lonza and cultured in EBM or SmBM (Lonza) supplemented with 0.5 mg/mL hEGF, […], 1 mg/mL hFGF, […] gentamicin/amphotericin-B, and 5% fetal bovine serum. All the cells were cultured at 37 in 5% (v/v) CO2 and 95% (v/v) air. RASMCs and HCSMCs were, respectively, plated at the densities of 1×10^4 cells/cm^2 and 1×10^5 cells/cm^2 for immunostaining and western blotting experiments. […]
Vascular smooth muscle cells (VSMCs) were homogenized in a minimal volume of 50 mM Tris-HCl, pH 7.4, supplemented with a broad-spectrum protease inhibitor cocktail (Calbiochem). […] The blots were scanned and quantified using LAS software.

[3] = tested on: monocrotaline (MCT)-induced pulmonary arterial hypertension mice; experiment: Monocrotaline-induced pulmonary arterial hypertension in mice; type: in vivo, mouse
Procedure: as §1
As for mice, fifteen C57BL/6 mice (Damool science, Korea) weighing 25-30 g were treated with 600 mg/kg MCT five times a week. Out of the mice, eight animals for a comparison group were administered with ψPLB-SE peptide four times at intervals of one week from day 15 after the administration of MCT. Five animals for a control group were administered with a control peptide. The mice were sacrificed one week after last administration, and then histological analysis and molecular biological experiments were conducted.
Pulmonary tissues were taken from animal models, fixed with 4% (w/v) paraformaldehyde for 5 days at room temperature, and then washed with PBS. After embedding the specimens in paraffin and sectioning the tissue blocks into a thickness of 7 μm, the sections were stained with haematoxylin and eosin (Sigma Aldrich) to investigate the vascular thickness and inflammation, and the sections were stained with Masson-trichrome (Sigma Aldrich) to investigate the extent of perivascular fibrosis, and then observed through an optical microscope.
The pulmonary tissues were obtained from rats and mice, and the cytokine levels in the tissues were quantitatively analyzed using human proinflammatory 10plex Meso Scale Diagnostics plates (MSD; Rockville, Md.).
Quantitative RT-PCR was performed using SYBR premix Ex Taq™ (Takara), though which the transcriptional levels of target genes were analyzed. RNA was isolated from pulmonary tissues using trizole (ambion), and synthesized into cDNA. Quantitative RT-PCR conditions were 40 cycles: 10 sec at 94° C., 30 sec at 59° C., and 10 sec at 72° C.

[4] = tested on: SERCA2a; experiment: Calcium uptake assay (SERCA2a activity) in PASMCs; type: biochemical; conditions: synthetic phenotype, 3 μM
Procedure: Pulmonary arterial smooth muscle cells (PASMCs) were homogenized in a solution of pH 7.0 containing 40 mM imidazole, 10 mM NaF, 1 mM EDTA, 300 mM sucrose, and 0.5 mM DTT, and 250 μg of the lysate was added to an uptake buffer of pH 7.0 containing 100 mM KCl, 5 mM MgCl2, 5 mM NaN3, […], and 40 mM imidazole, and calcium uptake assay was performed with a calcium concentration of pCa 6, containing radioactive isotopes. The cells were treated with 1 μM ruthenium red (Sigma Aldrich), followed by waiting at 37° C. for 3 min, and then treated with 5 mM K-oxalate and Mg-ATP (Sigma Aldrich). In addition, 500 μl of the reaction material was filtered out through a 0.45 μm filter (Millipore) from the start of a reaction to 4 minutes at intervals of 1 minute, and cpm (count per minute) was measured using a scintillation counter (Beckman).

RAETIEMPQ (not fully specified) [ψPLB-SE, 9-mer PP1 decoy peptide mimicking phosphorylated PLB; conjugated via GGG linker to cell penetrating peptide dNP2 or TAT]
injury-dependent reduction of SERCA2a in VSMCs [1]: completely inhibited
A23187 (Ca^2+)-dependent degradation of SERCA2a [2]: completely inhibited
expression level of SERCA2a ([3]; mouse pulmonary tissue): increased
fibrosis extent of vascular adventitia (Masson-trichrome staining) ([3]; mouse pulmonary tissue): attenuated
increases in the protein and mRNA expression of TGF-β, Collagen 1, vimentin, and α-SMA ([3]; mouse pulmonary tissue): attenuated
proinflammatory cytokines (GM-CSF, TNF-α, IL-17, IL-1β, IL-6, TGF-β) levels ([3]; mouse pulmonary tissue): restored to nearly to the normal levels
eNOS phosphorylation level (eNOS activity) ([3]; mouse pulmonary tissue proteins): increased
increase in vascular thickening (hematoxylin and eosin staining) ([3]; mouse pulmonary tissue, MCT 600 mg/kg, peptide via respiratory inhalation once a week for 4 weeks from the second week): attenuated
increase in monocyte infiltration ([3]; mouse pulmonary tissue, hematoxylin and eosin staining): attenuated
mRNA expression levels of TNF-α, IL-17, IL-1β, F4/80, and MCP-1 ([3]; mouse pulmonary tissue, quantitative RT-PCR): reduced
SERCA2a activity (Ca^2+ uptake assay) [4]: restored
